Our source for the Activity, Flu intensity and T/C values is ChEMBL document CHEMBL5532715, “Rogersonins C-F, 9H-Imidazo[2,1-i]purine-Incorporating Adenine-Polyketide Hybrids from an Ophiocordyceps-Associated Clonostachys rogersoniana” (2024).

Each structure is given as a SMILES string. Activity calls are given as the source filed them. The rule behind the calls is not given here.

Assay [1] relates to MDA-MB-231. The experiment in a line: Antiproliferative activity against human MDA-MB-231 cells incubated for 72 hrs by MTT assay. In kind it is functional, cell-based. Background: Tetrazolium dyes change colour on reduction, which living cells bring about.
The subject of a further assay is MCF7. In words: Antiproliferative activity against human MCF7 cells incubated for 72 hrs by MTT assay. In kind it is functional, cell-based.
Assay [2] concerns A549. In words: Antiproliferative activity against human A549 cells incubated for 72 hrs by MTT assay. The assay is classed as functional, cell-based.
Assay [3] is described as follows: Downregulation of cell surface PD-L1 expression in human MDA-MB-231 cells assessed as mean fluorescence intensity at 5 uM incubated for 24 hrs by phycoerythrin staining based flow cytometry analysis (reference value: 1156). In kind it is functional. A general note: In flow cytometry, cells or beads pass a laser one at a time.
Assay [4] can be described thus: Downregulation of cell surface PD-L1 protein expression in human MDA-MB-231 cells assessed as test to control ratio at 5 uM incubated for 24 hrs by Western blot analysis. In kind it is functional.
The nature of assay [5]: Downregulation of cell surface PD-L1 protein expression in human A549 cells assessed as test to control ratio at 5 uM incubated for 24 hrs by Western blot analysis. The assay is classed as functional. On the technique in general: A western blot detects proteins with antibodies after separation by electrophoresis.
Assay [6] deals with MDA-MB-231. The experiment in a line: Effect on CD274 mRNA expression in human MDA-MB-231 cells at 5 to 10 uM hrs by real-time quantitative-PCR analysis. In kind it is functional, cell-based. Conditions: dose 5-10 µM.
Assay [7] concerns A549. The experiment in a line: Effect on CD274 mRNA expression in human A549 cells at 5 to 10 uM hrs by real-time quantitative-PCR analysis. Conditions: dose 5-10 µM. In kind it is functional, cell-based.
The nature of assay [8]: Downregulation of cell surface PD-L1 expression in human MDA-MB-231 cells assessed as mean fluorescence intensity at 10 uM incubated for 24 hrs by phycoerythrin staining based flow cytometry analysis (reference value: 1156). In kind it is functional.
The nature of assay [9]: Downregulation of cell surface PD-L1 protein expression in human MDA-MB-231 cells assessed as test to control ratio at 10 uM incubated for 24 hrs by Western blot analysis. The assay is classed as functional.
A short description of assay [10]: Downregulation of cell surface PD-L1 protein expression in human A549 cells assessed as test to control ratio at 10 uM incubated for 24 hrs by Western blot analysis. In kind it is functional.
Assay [11] in a line: Downregulation of cell surface PD-L1 expression in human MDA-MB-231 cells assessed as mean fluorescence intensity at […] incubated for 24 hrs by phycoerythrin staining based flow cytometry analysis (reference value: 1156). In kind it is functional.

In the case of `C[C@@H]1OC(=O)/C=C/[C@@H](O)CC[C@H](C)OC(=O)Cc2c1nc1c3ncn([C@@H]4O[C@H](CO)[C@@H](O)[C@H]4O)c3ncn21`, the outcome in the assay with MDA-MB-231 [1], with MCF7, in the assay with A549 [2], in the assay on MDA-MB-231 [6] and in the assay on A549 [7] was inactive. The Flu intensity in [3] was determined as 897; in assay [8], 820. Moreover, the T/C in assay [4] was 0.89; in assay [5], 0.6; in assay [9] it was 0.54; in [10], 0.32.

With `C[C@@H]1OC(=O)/C=C/[C@@H](O)CC[C@H](C)OC(=O)[C@H](n2cnc3c2ncn2c4c(nc32)[C@H](C)OC(=O)/C=C/[C@@H](O)CC[C@H](C)OC(=O)C4)CC1=O`, the result in the assay with MDA-MB-231 [1], with MCF7 and with A549 [2] was inactive.

Regarding `CO[C@@H]1[C@H](O)[C@@H](CO)O[C@H]1n1cnc2c1ncn1c3c(nc21)[C@H](C)OC(=O)/C=C/[C@@H](O)CC[C@H](C)OC(=O)C3`, the outcome with MDA-MB-231 [1], with MCF7 and in the assay with A549 [2] was inactive.

For the compound `CN(C)C(=N)NC(=N)N` [METFORMIN], the Flu intensity in [11] stood at 1081.

In the case of `C[C@@H]1OC(=O)/C=C/[C@@H](O)CC[C@H](C)OC(=O)[C@H](n2cnc3ncn4c5c(nc4c32)[C@H](C)OC(=O)/C=C/[C@@H](O)CC[C@H](C)OC(=O)C5)CC1=O`, the result in the assay with MDA-MB-231 [1], in the assay on MCF7 and in the assay with A549 [2] was inactive.
